{"source": "patent US8017747B2", "about": "“Apoptosis-inducing genes for treating cancer” (Nationwide Children's Hospital, Inc., priority 2004, dated 2011)", "key": {"697Bcl2 cells": {"test_system": "697Bcl2 cells", "assay": "697Bcl2 cell growth, trypan blue exclusion", "type": "cell-based", "settings": "72 hours", "description": "(§1) To determine cell viability, cells were subjected to trypan blue exclusion assays. Briefly, cells were washed with PBS, and diluted 1:1 in a solution of 0.4% trypan blue. Viable cells were counted and total viable cell number was used for growth curves. Late apoptotic/necrotic cells were also identified by staining with 0.4% trypan blue. The number of apoptotic/necrotic cells were counted and expressed as a percentage of the total number of cells.\n(§2) The foregoing descriptions provide many working examples organized under a single example as an aid to the reader. Further, these descriptions emphasized the results obtained with Jurkat cells."}, "[1]": {"test_system": "SKOV-3 intraperitoneal ovarian tumors", "settings": "26 days; for Tumor Size / Tumor Weight: mean"}, "Jurkat cells [2]": {"test_system": "Jurkat cells", "assay": "Jurkat cell growth/viability and late apoptosis, trypan blue exclusion", "type": "cell-based", "procedure": "Acute T-cell leukemia cells, Jurkat, were grown in RPMI-1640 (Mediatech) supplemented with 10% FBS and grown at 37° C. in 95% air, 5% CO2. For growth analysis, cells were seeded at a density of 2×10^5 cells and for all other experiments a density of 5×10^5 was used. Transfections were performed using effectene transfection reagent, at a ratio of 1 μg DNA:25 μl effectene.\nas §1\nProliferating Jurkat cells were seeded at a density of 2×10^5 cells and transfected with control plasmid, SAGA, or treated with 2 μM VCR. Viable cells were assayed by trypan blue exclusion at 0, 12, 24, 48 and 72 hours post-transfection/treatment. […]\nLate apoptosis was quantified as the percentage of dead cells versus total cells. […]\nIn addition to the single treatment effects of SAGA expression on transfected cells, the combined effects of treatment with SAGA plus VCR were also evaluated in vitro using Jurkat cells. […]"}, "Jurkat cells [3]": {"test_system": "Jurkat cells", "assay": "Phase contrast microscopy of Jurkat cells (morphological changes)", "type": "cell-based", "settings": "12 hours", "procedure": "SAGA transfected, VCR treated, and control cells were visualized microscopically at 0, 12, 48 and 72 hours post transfection/treatment. At 0 hours, the cells in all groups appeared healthy. At 12 hours, there was approximately 5% apoptosis seen in both SAGA- and VCR-treated cell populations. At 48 and 72 hours, more than 50% of apoptotic cells in SAGA- and VCR-treated cell populations were visualized, with a very high degree of morphologically abnormal cells in the population of cells transfected with SAGA, including late necrotic and lysed cells, appearing as cellular debris."}, "Jurkat cells (T-ALL)": {"test_system": "Jurkat cells (T-ALL)", "assay": "Annexin V/PI staining with FACS, T-ALL (Jurkat)", "type": "cell-based", "procedure": "(§3) To analyze early apoptotic events, cells from the different experimental conditions were subjected to staining with an Annexin V-FLUOS kit (Roche). FACS analysis was then performed.\nAnnexin-V/PI is a commonly used method to detect early apoptotic events in cells. We employed this strategy to assay early apoptosis in SAGA transfected cells at 12, 24 and 48 hours.\nApoptotic events were detected by Annexin V staining and by changes in mitochondrial potential, as early as 12 hours post-treatment. In addition to these events, DNA fragmentation was also observed and caspase-3 activation was evident in treated cells. Cytotoxicity was clearly visible by microscopic analysis 24 hours post-treatment (FIG. 3)."}, "697Bcl2 cells (B-ALL)": {"test_system": "697Bcl2 cells (B-ALL)", "assay": "Annexin V/PI staining with FACS, B-ALL (697Bcl2)", "type": "cell-based", "procedure": "as §3, §2"}, "Jurkat cells [4]": {"test_system": "Jurkat cells", "assay": "DNA fragmentation by agarose gel, Jurkat", "type": "cell-based", "settings": "48 hours", "procedure": "To analyze DNA fragmentation, cellular DNA was isolated by lysis of cells in Cell Lysis Buffer (50 mM Tris-HCl, pH 8.5, 20 mM EDTA, 1% NP-40 (IGEPAL CA-630)) for 30 minutes on ice, followed by a 1 hour incubation at 56° C. with 500 μg/ml RNase A (Roche) and an overnight incubation with 1 mg/ml proteinase K (Fisher) at 37° C. After allowing the solution to cool to room temperature, proteins were precipitated with Protein precipitation solution (Gentra Systems) and isopropanol was added to the supernatants containing DNA to precipitate that DNA. The resulting RNase-treated DNA was quantified by spectrophotometry and 5 μg of DNA were resolved in a 1.8% agarose gel at 80V for 2 hours. DNA was stained by ethidium bromide and visualized with a UV transilluminator. A 1 kB Plus DNA ladder (Fisher) was run alongside the samples.\nDNA fragmentation is a common sign of late-stage apoptosis that is characterized by enzyme-mediated nicks and breaks in the DNA. […] The onset of DNA fragmentation occurred at 12 hours post-treatment for SAGA-treated cells. […] DNA from control cells remained intact throughout the experiment."}, "Jurkat cells [5]": {"test_system": "Jurkat cells", "assay": "Western blot of Jurkat lysates (Granzyme B, caspase-3, p21)", "type": "cell-based", "settings": "48 hours", "procedure": "Proteins were extracted from cells by boiling in 0.5% SDS. Quantification of the protein content of the cell lysates was determined using the Lowry method. A total of 15 μg of each cell lysate were analyzed through electrophoretic separation in 12% SDS-PAGE and transferred onto a nitrocellulose membrane using a semi-dry transfer apparatus, at 20V for 1 hour. The membrane was probed with rabbit anti-caspase-3 polyclonal antibody (1:1000, Santa Cruz Biotech), rabbit anti-granzyme B (1:1000, Abcam) or mouse anti-p21 (1:1000, Santa Cruz Biotech) and HRP-conjugated anti-rabbit or anti-mouse IgG (1:5000, Santa Cruz Biotech). Detection was achieved using the ECL or ECL Advanced kits (Amersham) and exposure to X-ray film for varying amounts of time. Protein standards were used for size determination.\nProliferating Jurkat cells were transfected with the survivin promoter-granzyme B construct disclosed herein and termed SAGA, for 24 or 48 hours. Protein extracts were generated from transfected cells and control transfected cells, and analyzed by SDS-PAGE.\nAfter confirming expression of Granzyme B from SAGA, its apoptotic function was tested by assaying for caspase-3 activation. Proliferating Jurkat cells were transfected with SAGA for 24 or 48 hours, as previously described. Protein extracts were separated by SDS-PAGE.\nThe levels of p21 in control cells at both time points were negligible."}, "Daoy cells [6]": {"test_system": "Daoy cells", "assay": "Daoy cell growth/viability, trypan blue exclusion", "type": "cell-based", "settings": "24 hours, VCR 2 μM", "procedure": "Medulloblastoma cell lines, i.e., Daoy cells (ATCC HTB-186), were grown in DMEM-(Mediatech) supplemented with 10% FBS and grown at 37° C. in 95% air, 5% CO2. For growth analysis, cells were seeded at a density of 1.5×10^5 cells. Transfections were performed using effectene transfection reagent, at a ratio of 1 μg DNA:10 μl effectene.\nas §1\nProliferating Daoy cells were seeded at a density of 1.5×10^5 cells and transfected with control plasmid, SAGA, or treated with 2 μM VCR. Viable cells were assayed by trypan blue exclusion at 0, 24, 48 and 72 hours post-transfection/treatment. There was a 90% decrease in the viability of SAGA-transfected cells at 24 hours compared to 50% for VCR-treated cells. Control cells grew consistently, with a doubling time of approximately 48 hours."}, "Daoy cells [7]": {"test_system": "Daoy cells", "assay": "Phase contrast microscopy of Daoy cells", "type": "cell-based", "settings": "48 and 72 hours", "procedure": "Living cells in 12-well plates were observed by phase contrast microscopy using a Leica Inverted microscope at 10× magnification.\nSAGA-transfected, VCR-treated, and control cells were visualized microscopically at 0, 24, 48 and 72 hours post transfection/treatment. At 0 hours, the cells in all groups appeared healthy."}}, "note": "Where a name gives a salt, the structure may show the parent alone. Read-outs that look alike come from different tables or passages of the source."}
{"compound": "COc1cc([C@@H]2c3cc4c(cc3[C@@H](O[C@@H]3O[C@@H]5CO[C@@H](C)O[C@H]5[C@H](O)[C@H]3O)[C@H]3COC(=O)[C@H]23)OCO4)cc(OC)c1O", "note": "[Etoposide, etoposide]", "values": [{"measurement": "living cells as % of the original inoculum", "setting": "697Bcl2 cells; vincristine normal serum concentration, etoposide 5 μM", "result": 61.8, "unit": "%"}]}
{"compound": "CC(=O)O[C@H]1C(=O)[C@@]2(C)[C@H]([C@H](OC(=O)c3ccccc3)[C@]3(O)C[C@H](OC(=O)[C@H](O)[C@@H](NC(=O)c4ccccc4)c4ccccc4)C(C)=C1C3(C)C)[C@]1(OC(C)=O)CO[C@@H]1C[C@@H]2O", "note": "[Paclitaxel, paclitaxel]", "values": [{"measurement": "Disease Dissemination", "setting": "[1]", "result": "4 of 5"}, {"measurement": "Number of Nodules", "setting": "[1]", "result": "6.2 ± 3.9"}, {"measurement": "Animals with Tumors at Completion of Therapy", "setting": "[1]; paclitaxel 15 mg/kg i.p. 2 injections, SAGA 0.5 mg/kg DNA i.p. twice weekly", "result": "5 of 5"}, {"measurement": "Tumor Size", "setting": "[1]", "result": "10.4 ± 1.3", "unit": "mm"}, {"measurement": "Tumor Weight", "setting": "[1]", "result": "236.0 ± 79.8", "unit": "mg"}, {"measurement": "Tumor Size", "setting": "[1]; listed as paclitaxel", "result": 10.4, "unit": "mm"}, {"measurement": "Tumor Weight", "setting": "[1]; listed as paclitaxel", "result": 236.0, "unit": "mg"}]}
{"compound": "CC[C@]1(O)C[C@H]2CN(CCc3c([nH]c4ccccc34)[C@@](C(=O)OC)(c3cc4c(cc3OC)N(C=O)[C@H]3[C@@](O)(C(=O)OC)[C@H](OC(C)=O)[C@]5(CC)C=CCN6CC[C@]43[C@@H]65)C2)C1", "note": "[Vincristine, Vincristine sulfate]", "values": [{"measurement": "average viability", "setting": "Jurkat cells [2]; 48 hours after treatment", "result": 86, "unit": "%"}, {"measurement": "final living cell count as % of the initial cell number at time 0", "setting": "Jurkat cells [2]; 72 hours post-transfection/treatment, VCR 2 μM", "result": 63, "unit": "%"}, {"measurement": "apoptosis seen microscopically", "setting": "Jurkat cells [3]", "result": "approximately 5%"}, {"measurement": "Early Apoptosis", "setting": "Jurkat cells (T-ALL); 24 hours", "result": 46.5, "unit": "%"}, {"measurement": "Necrosis", "setting": "Jurkat cells (T-ALL); 24 hours", "result": 18, "unit": "%"}, {"measurement": "Early Apoptosis", "setting": "Jurkat cells (T-ALL); 48 hours", "result": 49.4, "unit": "%"}, {"measurement": "Necrosis", "setting": "Jurkat cells (T-ALL); 48 hours", "result": 26, "unit": "%"}, {"measurement": "Early Apoptosis", "setting": "697Bcl2 cells (B-ALL); 24 hours", "result": 1.78, "unit": "%"}, {"measurement": "Necrosis", "setting": "697Bcl2 cells (B-ALL); 24 hours", "result": 1.17, "unit": "%"}, {"measurement": "Early Apoptosis", "setting": "697Bcl2 cells (B-ALL); 48 hours", "result": 5.09, "unit": "%"}, {"measurement": "Necrosis", "setting": "697Bcl2 cells (B-ALL); 48 hours", "result": 2.34, "unit": "%"}, {"measurement": "DNA fragmentation", "setting": "Jurkat cells [4]", "result": "visible"}, {"measurement": "p21 protein induction", "setting": "Jurkat cells [5]", "result": "much lower levels"}, {"measurement": "living cells as % of the original inoculum", "setting": "697Bcl2 cells; high dose of vincristine (5 μM)", "result": 103, "unit": "%"}, {"measurement": "decrease in viability", "setting": "Daoy cells [6]", "result": 50, "unit": "%"}, {"measurement": "apoptotic cells seen microscopically", "setting": "Daoy cells [7]", "result": "high numbers of apoptotic cells"}]}
